Assays:
[1] = tested on: mice; test: Cytokine induction in CDN-treated mice (Example 2.3); type: in vivo, mouse; conditions: Swiss mice; 10 mg/kg i.v.; 4 h post-injection; RAW ISG54 reporter cells; FIG. 6
Source text: Interleukin-6 was quantified using an enzyme-linked immunoassay (ELISA) according to the manufacturer's instructions (R&D Systems).
• Species evaluated: mouse • Cyclic dinucleotides tested: CL604, CL606, CL609, CL611 and CL614 • Reference compound: c-AIMP and saline • Cytokines evaluated: IFN-α/β (using RAW ISG54 reporter cells) and IL-6 (by ELISA).
Twenty-one mice (Swiss; female; mean age: 8 weeks) were divided into seven groups of three: one group served as control (saline) and the other six groups were each treated with a cyclic dinucleotide (either c-AIMP, CL604, CL606, CL609, CL611 or CL614). On Day −7, blood samples for basal cytokine levels were collected from all mice and stored at −20° C. until analysis. On Day 1, the mice were treated with either 200 μL of physiologic serum (containing 0.9% NaCl) or 200 μL of a solution of a cyclic dinucleotide (dose: 10 mg/kg) in physiologic serum (containing 0.9% NaCl), by intravenous (i.v.) injection. Blood samples were collected from the mice at 4 h post-injection, and then stored at −20° C. until analysis. Cytokine induction was measured in the sera from the blood samples.

[2] = molecular target: T1, nuclease P1 (NP1) (Penicillium citrinum, UniProt P24289); test: Resistance to enzymatic cleavage by NP1, monitored by UHPLC-MS (Example 2.6); conditions: 7 μg CDN; 2.5 mU NP1 in 30 mM acetate buffer with 2 mM ZnCl2, pH 5.3; 37° C.; 0 to 120 hours; FIGS. 10B, 10D
T1 sequence (P24289 1-270): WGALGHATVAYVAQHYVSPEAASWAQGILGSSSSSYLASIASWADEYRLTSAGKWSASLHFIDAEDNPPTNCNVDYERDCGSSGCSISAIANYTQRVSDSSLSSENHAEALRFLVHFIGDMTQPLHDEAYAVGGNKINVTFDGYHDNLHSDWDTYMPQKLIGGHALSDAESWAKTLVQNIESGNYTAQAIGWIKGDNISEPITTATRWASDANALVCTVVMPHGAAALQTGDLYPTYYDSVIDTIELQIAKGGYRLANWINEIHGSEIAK
Procedure: (§1) • Enzymes used: snake-venom phosphodiesterase (SVPD) and nuclease P1 (NP1) • Subject CDNs tested: CL603, CL632, CL614 and CL656 • Reference (non-fluorinated) CDNs tested: c-GAMP and c-AIMP • Property evaluated: resistance to enzymatic cleavage
(§2) We incubated each CDN with either of two enzymes known to cleave nucleic acids and CDNs, and then looked for signs of degradation by UHPLC over time, by measuring the decrease in the area of the peak corresponding to the CDN (identified according to MS). Specifically, we assessed the resistance of the CDNs to snake-venom phosphodiesterase (SVPD) and nuclease P1 (NP1), both of which can degrade CDNs by cleaving the phosphodiester nucleotide linkages. The experiment was performed as follows:
(§3) Each CDN (7 […]g) was separately incubated with a solution (21 µL) of either enzyme (either 160 µg SVPD in PBS buffer containing 0.6 mM MgCl2; or 2.5 mU NP1 in 30 mM acetate buffer containing 2 mM ZnCl2 [pH 5.3]), or with water (as control) in a water bath at 37° C. Aliquots of the reaction mixture were collected at various time points from 0 to 120 hours, heated at 100° C. for 2 min, and then frozen at […] Finally, 10 µL of each aliquot was injected directly into the HPLC (Agilent 1290 Infinity UHPLC equipped with a UV-detector; column: Waters Acquity UPLC CSH C18 1.7 µm [2.1 mm×50 mm; flow rate: 0.3 mL/min]; detection at 254 nm; autosampler temperature: 25° C.) for analysis. The following gradient was used: 100% A (10 mM aq. ammonium formate) for 1 minute; then 100% A to 100% B (acetonitrile) over 5 minutes.
(§4) The percentage of absorbance of CDNs at each time point was calculated by dividing the peak area corresponding to the parent CDN, by the sum of all the peak areas in the chromatogram, and then multiplying by 100.

[3] = tested on: snake-venom phosphodiesterase (SVPD); test: Resistance to enzymatic cleavage by SVPD, monitored by UHPLC-MS (Example 2.6); conditions: 37° C., FIGS. 10A, 10C; for Resistance to enzymatic degradation by SVPD, compared with corresponding non-fluorinated ribo-CDN analog: 7 μg CDN, 160 μg SVPD in PBS with 0.6 mM MgCl2, 0 to 120 hours; for Resistance to SVPD, compared with corresponding analog containing two phosphodiester linkages: phosphorothioate vs phosphodiester fluorinated deoxyribo-CDNs
Procedure: as §1, §2, §3, §4

[4] = tested on: whole blood from healthy human donors; test: Cytokine induction in vitro in whole blood from healthy human donors (Example 2.5); type: cell-based; conditions: blood diluted 1:1 in RPMI, 18 to 20 hours, averages for all 20 donors, FIG. 9; for Type I IFN induction in human whole blood (active concentration): HEK-Blue™ IFN-α/β-KO-STING reporter; for IL-1 induction in human whole blood (active concentration): HEK-Blue™ IL-1R reporter; for TNF-α induction in human whole blood (active concentration): HEK-Blue™ TNF-α reporter
Source text: HEK-Blue™ cell lines: The following three cell lines also were used for biological evaluation of the CDNs. • 1. HEK-Blue™ IFN-α/β-KO-STING: These cells are derived from HEK-Blue™ IFN-α/β cells (InvivoGen catalog code: hkb-ifnab), in which the STING gene has been inactivated. HEK-Blue™ IFN-α/β cells enable detection of bioactive human type I IFNs through monitoring of activation of the ISGF3 pathway. These cells were generated by stable transfection of HEK293 cells with the human STAT2 and IRF9 genes to obtain a fully active type I IFN signaling pathway. The other genes of the pathway (IFNAR1, IFNAR2, JAK1, TyK2 and STAT1) are naturally expressed in sufficient amounts. The cells were further transfected with a SEAP reporter gene under control of an IFN-α/β-inducible ISG54 promoter. Stimulation of HEK-Blue™ IFN-α/β cells with human IFN-α or IFN-β activates the JAK/STAT/ISGF3 pathway and subsequently induces production of SEAP. Production of Type I interferons in these cells is measured using QUANTI-Blue™. • 2. HEK-Blue™ IL-1R (InvivoGen catalog code: hkb-illr): HEK-Blue™ IL-1R cells were designed to detect bioactive human and murine IL-1β through monitoring of activation of the NF-κB and AP-1 pathways. Additionally, these cells detect bioactive IL-1β from cynomolgus monkeys, dogs and rats. In fact, HEK-Blue™ IL-1R cells can detect IL-la and IL-1(3, as these cytokines bind to the same receptor, IL-1R. These cells derive from HEK-Blue™ IL-1β cells (InvivoGen catalog code: hkb-illb), in which the TNF-α response is blocked. Therefore, HEK-Blue™ IL-1R cells respond specifically to IL-1. These cells endogenously express the human IL-1 receptor and were stably transfected with the murine IL-1 receptor, rendering them very sensitive to both human and murine IL-1(3. HEK-Blue™ IL-1R cells express a SEAP reporter gene under control of an IFN-(3 minimal promoter fused to five NF-κB and five AP-1 binding sites. Binding of IL-1β to IL-1R on the surface of HEK-Blue™ IL-1R cells triggers a signaling cascade that leads to the activation of NF-κB and subsequent production of SEAP. Production of IL-1β in these cells is measured using QUANTI-Blue™. • 3. HEK-Blue™ TNF-II-[…](InvivoGen catalog code: hkb-tnfdmyd): HEK-Blue™ TNF-α cells enable detection of bioactive human and murine TNF-α through monitoring of activation of the NF-κB pathway. These cells were generated by stable transfection of HEK293 cells with a SEAP reporter gene under control of an IFN-(3 minimal promoter fused to five NF-κB and five AP-1 binding sites. They were further rendered unresponsive to IL-1β by knocking out the MyD88 gene. Stimulation of HEK-Blue™ TNF-α cells with TNF-α triggers activation of the NF-κB-inducible promoter and production of SEAP. Production of TNF-α in these cells is measured using QUANTI-Blue™. Quantification of IL-6 in Experiments
Acquisition and Handling of Human Blood Samples
Twenty human blood samples were acquired from heathy donors at the San Diego Blood Bank (3636 Gateway Center Ave, Suite 100; San Diego, Calif. 92102; USA; www.sandiegobloodbank.org). Briefly, the samples were collected by venipuncture into sodium heparin (green-cap) tubes at the time of donation, and then stored at 4° C. until pick-up. The tubes were picked up on the day of collection, stored on ice during transport, and subsequently tested with the CDNs on the same day.
Each blood sample was diluted (1:1) in RPMI medium and aliquoted into 96-well plates (180-[…]L wells) containing each CDN at six different concentrations (30 µg/mL, 10 µg/mL, 3 µg/mL, 1 µg/mL, 0.3 µg/mL and 0.1 µg/mL). The plates were incubated at 37° C. in a CO2 incubator for 18 to 20 hours. The next day the supernatants were collected, transferred into the corresponding wells of round-bottom 96-well plates, and stored at −80° C. […]

[5] = literature example (Li, 2014); cited from earlier work

Row | SMILES | Type I interferon (IFN-α/β) induction in sera from mice [1] | Resistance to enzymatic degradation by NP1, compared with corresponding non-fluorinated ribo-CDN analog [2] | Resistance to enzymatic degradation by SVPD, compared with corresponding non-fluorinated ribo-CDN analog [3] | Resistance to SVPD, compared with corresponding analog containing two phosphodiester linkages [3] | Type I IFN induction in human whole blood (active concentration) [4] | IL-1 induction in human whole blood (active concentration) [4] | TNF-α induction in human whole blood (active concentration) [4] | Resistance to enzymatic hydrolysis compared with phosphodiester analog [5]
1 | Nc1ncnc2c1ncn2C1OC2COP(=O)(O)O[C@H]3C(n4cnc5c(=O)[nH]cnc54)OC(COP(=O)(O)O[C@@H]1[C@@H]2O)[C@H]3O (some centres unmarked) [CL611] | except CL611 strongly induced Type I interferons | – | – | – | – | – | – | –
2 | Nc1nc2c(ncn2C2OC3COP(=O)(S)O[C@@H]4C(COP(=O)(S)O[C@H]3[C@H]2F)OC(n2cnc3c(N)ncnc32)[C@@H]4F)c(=O)[nH]1 (some centres unmarked) [CL632] | – | more resistant to enzymatic degradation | more resistant to enzymatic degradation | more resistant to SVPD | – | – | – | –
3 | Nc1nc2c(ncn2C2OC3COP(=O)(O)O[C@@H]4C(COP(=O)(O)O[C@H]3[C@H]2F)OC(n2cnc3c(N)ncnc32)[C@@H]4F)c(=O)[nH]1 (some centres unmarked) [CL603] | – | more resistant to enzymatic degradation | more resistant to enzymatic degradation | – | more active than is its corresponding non-fluorinated analog | more active than is its corresponding non-fluorinated analog | more active than is its corresponding non-fluorinated analog | –
4 | Nc1ncnc2c1ncn2C1OC2COP(=O)(O)O[C@@H]3C(COP(=O)(O)O[C@H]2[C@H]1F)OC(n1cnc2c(=O)[nH]cnc21)[C@@H]3F (some centres unmarked) [CL614] | – | more resistant to enzymatic degradation | more resistant to enzymatic degradation | – | more active than is its corresponding non-fluorinated analog | more active than is its corresponding non-fluorinated analog | more active than is its corresponding non-fluorinated analog | –
5 | Nc1ncnc2c1ncn2C1OC2COP(=O)(S)O[C@@H]3C(COP(=O)(S)O[C@H]2[C@H]1F)OC(n1cnc2c(=O)[nH]cnc21)[C@@H]3F (mixture of isomers) [CL656] | – | – | more resistant to enzymatic degradation | more resistant to SVPD | more active than is its corresponding non-fluorinated analog | more active than is its corresponding non-fluorinated analog | more active than is its corresponding non-fluorinated analog | –
6 | Nc1nc2c(ncn2[C@@H]2O[C@@H]3COP(O)(=S)O[C@H]4[C@@H](O)[C@H](n5cnc6c(N)ncnc65)O[C@@H]4COP(=O)(S)O[C@@H]2[C@@H]3O)c(=O)[nH]1 (stereo partly drawn) [(2′,3′) c-GAMP(S)] | – | – | – | – | – | – | – | more resistant to enzymatic hydrolysis
